# Experimental data taken from US6673749B1, “Use of phyllocladane diterpenoids for plant growth promotion and alleviation of growth retardant allelochemicals, and method therefor” (Council of Scientific and Industrial Research, priority 2002, dated 2004).
# What was measured:
# Assay in all cases: Seed germination and seedling shoot/root growth test in petridishes
# Assay type in all cases: in vivo
# [1] = system: Trigonella foenum-graecum; conditions: for Percent (%) germination of seeds in relation to control on 9th day after sowing / Percent (%) root growth of seedlings in relation to control on 9th day after sowing / Percent (%) shoot growth of seedlings in relation to control on 9th day after sowing: Trigonella foenum graecum, control = 100%
# Description: (§1) As noted above the activity of phyllocladane diterpenoids used in the practice of this invention was observed when these compounds were tested for their effects on seed germination, root and shoot growth of certain plant species and their antagonistic effect on plant growth retardants by the method described by Bagchi G. D. et al Phytochemistry, 45(6)1131-1133, 1997.
# (§2) Plant growth promoting activity of calliterpenone, calliterpenone monoacetate, and calliterpenone di-acetate was examined at 0.1, 0.01 and 0.001 μM concentrations. The tests were conducted against seeds of two monocotyledonous (Hordeum vulgare and Triticum aestivum) and two dicotyledonous plants (Vigna radiata and Trigonella foenum-graecum). Control seeds were germinated in distilled water and all the observations were compared with […]. The root and shoot growth of all the plant species were affected by the phyllocladane diterpenoids, although the extent of effect varied considerably in the plant species with the chemicals and their concentrations. […] Details of the procedure adopted and results obtained are discussed in the various examples.
# (§3) 100 ml stalk solutions of 0.1 μM concentration were prepared by dissolving required amounts of various test compounds (depending upon their molecular weights) in minimum amount of ethanol or acetone and adding distilled water. From this stalk solution, 0.01 μM and 0.001 μM concentrations were prepared. Calliterpenone and calliterpenone di acetate was dissolved in 2.0 ml absolute ethanol (Merc), while; calliterpenone monoacetate, isopropylideno calliterpenone and trihydroxy calliterpenone were dissolved in 2.0 ml spectral grade acetone (Ranbaxy). The respective control test solutions of distilled water of each concentration also contained equal amount of absolute ethanol or acetone. For an assay, 10 seeds were placed on Whatman filter paper (moistened with 5.0 ml of test solution in a 9.0 cm diameter petridish (in triplicate). The pteridishes were incubated for 9 days in a germinator, maintained at 25.0±1.0° C. with 90% humidity and 4 hr light/day. At the end of incubation, observations were recorded on the seedlings in terms of germination, shoot and root growth. The data on the length of shoot and root of seedlings and number of seeds germinated in different concentrations of compounds were compared with the control, which was taken as 100%. The data thus obtained were presented in Table-1.
# (§4) Root growth of seedlings was measured in the similar way as shoot growth from the experiment as described in Example 1.
# (§5) Effect of test compounds on germination was observed from the same experiment as described in Example 1.
# Hordeum vulgare = conditions: control = 100%
# Description: as §1, §2, §3, §4, §5
# Vigna radiata = conditions: Vigna radiata, control = 100%
# Description: as §1, §2, §3, §4, §5
# Triticum aestivum = conditions: control = 100%
# Description: as §1, §2, §3, §4, §5
SMILES,Percent (%) germination of seeds in relation to control on 9th day after sowing ([1]; 0.001 μM) [%],Percent (%) root growth of seedlings in relation to control on 9th day after sowing ([1]; 0.001 μM) [%],Percent (%) shoot growth of seedlings in relation to control on 9th day after sowing ([1]; 0.001 μM) [%],Percent (%) germination of seeds in relation to control on 9th day after sowing ([1]; 0.01 μM) [%],Percent (%) root growth of seedlings in relation to control on 9th day after sowing ([1]; 0.01 μM) [%],Percent (%) shoot growth of seedlings in relation to control on 9th day after sowing ([1]; 0.01 μM) [%],Percent (%) germination of seeds in relation to control on 9th day after sowing ([1]; 0.1 μM) [%],Percent (%) root growth of seedlings in relation to control on 9th day after sowing ([1]; 0.1 μM) [%],Percent (%) shoot growth of seedlings in relation to control on 9th day after sowing ([1]; 0.1 μM) [%],Percent (%) germination of seeds in relation to control on 9th day after sowing (Hordeum vulgare; 0.001 μM) [%],Percent (%) root growth of seedlings in relation to control on 9th day after sowing (Hordeum vulgare; 0.001 μM) [%],Percent (%) shoot growth of seedlings in relation to control on 9th day after sowing (Hordeum vulgare; 0.001 μM) [%],Percent (%) germination of seeds in relation to control on 9th day after sowing (Hordeum vulgare; 0.01 μM) [%],Percent (%) root growth of seedlings in relation to control on 9th day after sowing (Hordeum vulgare; 0.01 μM) [%],Percent (%) shoot growth of seedlings in relation to control on 9th day after sowing (Hordeum vulgare; 0.01 μM) [%],Percent (%) germination of seeds in relation to control on 9th day after sowing (Hordeum vulgare; 0.1 μM) [%],Percent (%) root growth of seedlings in relation to control on 9th day after sowing (Hordeum vulgare; 0.1 μM) [%],Percent (%) shoot growth of seedlings in relation to control on 9th day after sowing (Hordeum vulgare; 0.1 μM) [%],Percent (%) germination of seeds in relation to control on 9th day after sowing (Vigna radiata; 0.001 μM) [%],Percent (%) root growth of seedlings in relation to control on 9th day after sowing (Vigna radiata; 0.001 μM) [%],further results
"CC(=O)OCC1(OC(C)=O)CC23CCC4C(C)(C)C(=O)CCC4(C)C2CCC1C3 (stereo not shown) [Calliterpenone Diacetate, calliterpenone diacetate]",100,73,81,100,113,121,75,95,94,100,119,108,100,113,106,100,98,105,200,91,"Percent (%) root growth of seedlings in relation to control on 9th day after sowing ([1]; 0.001 μM, listed as Calliterpenone diacetate): 113%; Percent (%) root growth of seedlings in relation to control on 9th day after sowing (Hordeum vulgare; 0.01 μM, listed as Calliterpenone diacetate): 119%; Percent (%) shoot growth of seedlings in relation to control on 9th day after sowing (Vigna radiata; 0.001 μM): 111%; Percent (%) germination of seeds in relation to control on 9th day after sowing (Vigna radiata; 0.01 μM): 100%; Percent (%) root growth of seedlings in relation to control on 9th day after sowing (Vigna radiata; 0.01 μM): 136%; Percent (%) shoot growth of seedlings in relation to control on 9th day after sowing (Vigna radiata; 0.01 μM): 115%; Percent (%) germination of seeds in relation to control on 9th day after sowing (Vigna radiata; 0.1 μM): 100%; Percent (%) root growth of seedlings in relation to control on 9th day after sowing (Vigna radiata; 0.1 μM): 93%; Percent (%) shoot growth of seedlings in relation to control on 9th day after sowing (Vigna radiata; 0.1 μM): 119%; Percent (%) germination of seeds in relation to control on 9th day after sowing (Triticum aestivum; 0.001 μM): 100%; Percent (%) root growth of seedlings in relation to control on 9th day after sowing (Triticum aestivum; 0.001 μM): 125%; Percent (%) shoot growth of seedlings in relation to control on 9th day after sowing (Triticum aestivum; 0.001 μM): 109%; Percent (%) germination of seeds in relation to control on 9th day after sowing (Triticum aestivum; 0.01 μM): 100%; Percent (%) root growth of seedlings in relation to control on 9th day after sowing (Triticum aestivum; 0.01 μM): 114%; Percent (%) shoot growth of seedlings in relation to control on 9th day after sowing (Triticum aestivum; 0.01 μM): 106%; Percent (%) germination of seeds in relation to control on 9th day after sowing (Triticum aestivum; 0.1 μM): 90%; Percent (%) root growth of seedlings in relation to control on 9th day after sowing (Triticum aestivum; 0.1 μM): 103%; Percent (%) shoot growth of seedlings in relation to control on 9th day after sowing (Triticum aestivum; 0.1 μM): 103%"
"CC1(C)OCC2(CC34CCC5C(C)(C)C(=O)CCC5(C)C3CCC2C4)O1 (stereo not drawn) [Isopropylideno Calliterpenone, 16α, 17-isopropylidino 3-oxo phyllocladane]",100,132,137,113,123,123,100,91,100,100,118,106,100,115,107,100,143,108,150,91,"Percent (%) root growth of seedlings in relation to control on 9th day after sowing ([1]; 0.01 μM, listed as Iso-propylideno calliterpenone): 132%; Percent (%) shoot growth of seedlings in relation to control on 9th day after sowing (Vigna radiata; 0.001 μM): 89%; Percent (%) germination of seeds in relation to control on 9th day after sowing (Vigna radiata; 0.01 μM): 100%; Percent (%) root growth of seedlings in relation to control on 9th day after sowing (Vigna radiata; 0.01 μM): 131%; Percent (%) shoot growth of seedlings in relation to control on 9th day after sowing (Vigna radiata; 0.01 μM): 153%; Percent (%) germination of seeds in relation to control on 9th day after sowing (Vigna radiata; 0.1 μM): 100%; Percent (%) root growth of seedlings in relation to control on 9th day after sowing (Vigna radiata; 0.1 μM): 124%; Percent (%) shoot growth of seedlings in relation to control on 9th day after sowing (Vigna radiata; 0.1 μM): 145%; Percent (%) germination of seeds in relation to control on 9th day after sowing (Triticum aestivum; 0.001 μM): 100%; Percent (%) root growth of seedlings in relation to control on 9th day after sowing (Triticum aestivum; 0.001 μM): 109%; Percent (%) shoot growth of seedlings in relation to control on 9th day after sowing (Triticum aestivum; 0.001 μM): 103%; Percent (%) germination of seeds in relation to control on 9th day after sowing (Triticum aestivum; 0.01 μM): 100%; Percent (%) root growth of seedlings in relation to control on 9th day after sowing (Triticum aestivum; 0.01 μM): 107%; Percent (%) shoot growth of seedlings in relation to control on 9th day after sowing (Triticum aestivum; 0.01 μM): 103%; Percent (%) germination of seeds in relation to control on 9th day after sowing (Triticum aestivum; 0.1 μM): 100%; Percent (%) root growth of seedlings in relation to control on 9th day after sowing (Triticum aestivum; 0.1 μM): 78%; Percent (%) shoot growth of seedlings in relation to control on 9th day after sowing (Triticum aestivum; 0.1 μM): 102%"
"CC1(C)C(O)CCC2(C)C3CCC4CC3(CCC12)CC4(O)CO (stereo not drawn) [Trihydroxy Phyllocladane, 30β, 16α, 17. trihydroxy phyllocladane]",63,55,53,75,68,72,88,82,84,100,145,102,100,112,108,100,106,109,100,100,"Effect on shoots (in words) ([1]; T. foenum-graecum, all dilutions tested): proved toxic; Percent (%) shoot growth of seedlings in relation to control on 9th day after sowing (Vigna radiata; 0.001 μM): 136%; Percent (%) germination of seeds in relation to control on 9th day after sowing (Vigna radiata; 0.01 μM): 150%; Percent (%) root growth of seedlings in relation to control on 9th day after sowing (Vigna radiata; 0.01 μM): 102%; Percent (%) shoot growth of seedlings in relation to control on 9th day after sowing (Vigna radiata; 0.01 μM): 145%; Percent (%) germination of seeds in relation to control on 9th day after sowing (Vigna radiata; 0.1 μM): 150%; Percent (%) root growth of seedlings in relation to control on 9th day after sowing (Vigna radiata; 0.1 μM): 93%; Percent (%) shoot growth of seedlings in relation to control on 9th day after sowing (Vigna radiata; 0.1 μM): 132%; Percent (%) germination of seeds in relation to control on 9th day after sowing (Triticum aestivum; 0.001 μM): 100%; Percent (%) root growth of seedlings in relation to control on 9th day after sowing (Triticum aestivum; 0.001 μM): 90%; Percent (%) shoot growth of seedlings in relation to control on 9th day after sowing (Triticum aestivum; 0.001 μM): 108%; Percent (%) germination of seeds in relation to control on 9th day after sowing (Triticum aestivum; 0.01 μM): 100%; Percent (%) root growth of seedlings in relation to control on 9th day after sowing (Triticum aestivum; 0.01 μM): 113%; Percent (%) shoot growth of seedlings in relation to control on 9th day after sowing (Triticum aestivum; 0.01 μM): 112%; Percent (%) germination of seeds in relation to control on 9th day after sowing (Triticum aestivum; 0.1 μM): 100%; Percent (%) root growth of seedlings in relation to control on 9th day after sowing (Triticum aestivum; 0.1 μM): 111%; Percent (%) shoot growth of seedlings in relation to control on 9th day after sowing (Triticum aestivum; 0.1 μM): 116%"
